Test results taken from article PMC11898958, “Application of Biomimetic Chromatography and QSRR Approach for Characterizing Organophosphate Pesticides” (International Journal of Molecular Sciences, 2025).
Read-outs that look alike come from different tables or passages of the source.

Experiments:
[1] = molecular target: human serum albumin (Homo sapiens, UniProt P02768)
Procedure: Each column was equipped with an appropriate precolumn. Elution was conducted under the following conditions:

[2] = Affinity to phospholipids by IAM-HPLC (IAM.PC.DD2 column); assay type: physicochemical
Procedure: (§1) Elution was conducted under the following conditions:
(§2) The injected volume was 10 μL. […] Each sample was analyzed three times.

[3] = Chromatographic lipophilicity by RP-HPLC on C18 column (CHIC18); assay type: physicochemical
Procedure: as §1, §2

[4] = HSA column, isopropanol gradient, 50 mM ammonium acetate pH 7.4, 30 °C
[5] = IAM.PC.DD2 column, acetonitrile gradient, 50 mM ammonium acetate pH 7.4, 30 °C
[6] = C18 XTERRA RP18 column, acetonitrile gradient, 50 mM ammonium acetate pH 7.4, 30 °C

Chain of human serum albumin (P02768 25-609): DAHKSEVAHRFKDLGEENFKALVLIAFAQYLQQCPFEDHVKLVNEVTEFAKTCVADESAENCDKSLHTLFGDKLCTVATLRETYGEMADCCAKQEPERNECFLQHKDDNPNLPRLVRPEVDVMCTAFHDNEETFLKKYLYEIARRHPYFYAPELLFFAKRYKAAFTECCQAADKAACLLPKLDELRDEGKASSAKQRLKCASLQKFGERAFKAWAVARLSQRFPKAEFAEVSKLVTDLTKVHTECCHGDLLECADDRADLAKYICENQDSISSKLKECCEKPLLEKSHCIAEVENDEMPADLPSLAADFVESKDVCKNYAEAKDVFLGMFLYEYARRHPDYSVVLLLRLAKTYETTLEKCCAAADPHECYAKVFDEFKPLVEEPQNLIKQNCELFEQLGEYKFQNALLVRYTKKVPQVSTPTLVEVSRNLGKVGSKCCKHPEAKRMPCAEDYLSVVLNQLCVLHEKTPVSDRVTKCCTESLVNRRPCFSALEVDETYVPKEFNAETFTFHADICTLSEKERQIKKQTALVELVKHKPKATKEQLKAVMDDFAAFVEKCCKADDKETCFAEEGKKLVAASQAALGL

| Compound | %HSA (binding to HSA) [1, 4] | LogkHSA (chromatographically determined affinity to HSA-HPLC) [1, 4] | CHIIAM (chromatographic hydrophobicity index of IAM-HPLC) [2, 5] | CHIC18 (chromatographic hydrophobicity index of RP-HPLC) [3, 6] | also measured |
| --- | --- | --- | --- | --- | --- |
| CCOP(=S)(OCC)SCn1nnc2ccccc2c1=O [Azinphos-ethyl] | 92.07% | 1.01 | 37.81 | 95.69 |  |
| COP(=S)(OC)SCn1nnc2ccccc2c1=O [Azinphos-methyl] | 86.70% | 0.78 | 33.18 | 83.47 |  |
| CCOP(=O)(OCC)OC(=CCl)c1ccc(Cl)cc1Cl [Chlorfenvinphos] | 85.54% | 0.74 | 38.13 | 97.18 |  |
| CCOP(=S)(OCC)Oc1cc(C)nc(C(C)C)n1 [Diazinon] | 81.33% | 0.62 | 39.34 | 105.98 | CHIC18 (chromatographic hydrophobicity index of RP-HPLC) ([3]; C18 XTERRA RP18 column, acetonitrile gradient, 50 mM ammonium acetate pH 7.4, 30 °C, listed as diazinon): remarkably high lipophilicity |
| COP(=O)(OC)OC=C(Cl)Cl [Dichlorvos] | 65.86% | 0.27 | 16.56 | 23.17 | CHIC18 (chromatographic hydrophobicity index of RP-HPLC) ([3]; C18 XTERRA RP18 column, acetonitrile gradient, 50 mM ammonium acetate pH 7.4, 30 °C, listed as dichlorvos): low lipophilicity |
| CCOP(=S)(OCC)SCCSCC [Disulfoton] | 92.86% | 1.06 | 42.34 | 108.97 | CHIIAM (chromatographic hydrophobicity index of IAM-HPLC) ([2]; IAM.PC.DD2 column, acetonitrile gradient, 50 mM ammonium acetate pH 7.4, 30 °C, listed as disulfoton): highest CHIIAM values; CHIC18 (chromatographic hydrophobicity index of RP-HPLC) ([3]; C18 XTERRA RP18 column, acetonitrile gradient, 50 mM ammonium acetate pH 7.4, 30 °C, listed as disulfoton): remarkably high lipophilicity |
| CCCSP(=O)(OCC)SCCC [Ethoprophos] |  |  |  |  | %HSA (binding to HSA) ([1]; human, pH 7.4): 28.35%; LogkHSA (chromatographically determined affinity to HSA-HPLC) ([1]; human, pH 7.4): −0.41; CHIIAM (chromatographic hydrophobicity index of IAM-HPLC) ([2]; pH 7.4): 32.41; CHIC18 (chromatographic hydrophobicity index of RP-HPLC) ([3]; pH 7.4): 88.39 |
| COP(=S)(OC)Oc1ccc([N+](=O)[O-])c(C)c1 [Fenitrothion] | 91.78% | 1.00 | 38.10 | 93.49 |  |
| COP(=S)(OC)Oc1ccc(SC)c(C)c1 [Fenthion] | 96.04% | 1.29 | 42.37 | 102.16 | %HSA (binding to HSA) ([1]; HSA column, isopropanol gradient, 50 mM ammonium acetate pH 7.4, 30 °C, listed as fenthion): highest protein-binding capacity; CHIIAM (chromatographic hydrophobicity index of IAM-HPLC) ([2]; IAM.PC.DD2 column, acetonitrile gradient, 50 mM ammonium acetate pH 7.4, 30 °C, listed as fenthion): highest CHIIAM values |
| CCOC(=O)N(C)C(=O)CSP(=S)(OCC)OCC [Mecarbam] | 74.23% | 0.44 | 35.77 | 97.09 |  |
| COP(=O)(OC)OC(Br)C(Cl)(Cl)Br (centres unmarked) [Naled] | 43.86% | −0.11 | 29.79 | 31.32 | CHIC18 (chromatographic hydrophobicity index of RP-HPLC) ([3]; C18 XTERRA RP18 column, acetonitrile gradient, 50 mM ammonium acetate pH 7.4, 30 °C, listed as naled): low lipophilicity |
| CCOP(=O)(OCC)Oc1ccc([N+](=O)[O-])cc1 [Paraoxon-ethyl] | 27.68% | −0.42 | 25.34 | 72.54 |  |
| COP(=S)(OC)Oc1ccc([N+](=O)[O-])cc1 [Parathion-methyl] | 87.94% | 0.83 | 35.54 | 88.75 |  |
| CCOP(=S)(OCC)SCSCC [Phorate] | 93.08% | 1.07 | 42.43 | 108.36 | CHIIAM (chromatographic hydrophobicity index of IAM-HPLC) ([2]; IAM.PC.DD2 column, acetonitrile gradient, 50 mM ammonium acetate pH 7.4, 30 °C, listed as phorate): highest CHIIAM values |
| COP(=S)(OC)SCN1C(=O)c2ccccc2C1=O [Phosmet] | 87.23% | 0.80 | 33.89 | 85.39 |  |
| CCOP(=S)(OCC)Oc1cnc2ccccc2n1 [Quinalphos] | 91.23% | 0.97 | 39.40 | 101.01 | CHIC18 (chromatographic hydrophobicity index of RP-HPLC) ([3]; C18 XTERRA RP18 column, acetonitrile gradient, 50 mM ammonium acetate pH 7.4, 30 °C, listed as quinalphos): remarkably high lipophilicity |
| Chlorpyrifos-oxon |  | 0.68 | 24.96 | 39.17 | %HSA (binding to HSA) ([1]; pH 7.4): 83.49% |
